# Source: publication PMC6767265, “Cytotoxicity and Apoptosis Induction of Coumarins and Carbazole Alkaloids from Clausena Harmandiana” (Molecules, 2019)
# Marks after values point to notes of the source that are not given here.
# Experiments:
# [1] = DPPH radical scavenging assay; format: biochemical
# Protocol: The 2,2–diphenyl–1–picrylhydrazyl (DPPH) radical scavenging assay was conducted as per the previous method. Briefly, the stock solutions of 10 mM DPPH was prepared in methanol. The DPPH was mixed with samples (100 µL each) at various concentrations (1−500 µM) in 96 wells plate and incubated for 30 min in a dark condition. The absorbance of DPPH radical was measured at 517 nm using a microplate reader (Tecan, Lyon, France). Trolox was used as a positive control. The half maximum inhibitory concentration (IC50 value) was calculated from the plot of percentage of DDPH radical inhibition versus concentration of samples using the following formula: % DPPH radical inhibition = [(Ab − As)/Ab] × 100,(1) where Ab = absorbance of the reagent blank, and As = absorbance of the sample. Each experiment was done in five replications and results are expressed as average values.
# [2] = Ferric reducing antioxidant power (FRAP) assay; format: biochemical; details: 100 µM compound
# Protocol: FRAP assay was performed following the pervious study with slight modification. FRAP reagent was prepared by mixing 300 mM acetate buffer (pH 3.6), 20 mM ferric chloride solution and 10 mM TPTZ solution in the ratio of 10:1:1 and incubated at 37 °C for 30 min. Then, 150 µL of FRAP reagent was added with 50 µL of the sample (100 µM of isolated compounds or 100 µg/mL of the CH2Cl2 crude extract) in each well of the 96-wells plate. The absorbance was measured at 595 nm using microplate reader (Tecan, Lyon, France). Trolox was used as a positive control. The FRAP value was calculated from the linear equation between the absorbance and ferrous sulfate standard curves (y = 0.0548x + 0.0213, R^2 = 0.9989) and expressed as µM of ferrous sulfate equivalents.
# [3] = test system: human hepatocellular carcinoma cell line (HepG2); assay: Cell viability assay (neutral red), HepG2; format: cell-based
# Protocol: (§1) The human lung adenocarcinoma cell line (SK-LU-1), human colon carcinoma cell line (HCT116), human hepatocellular carcinoma cell line (HepG2) and noncancerous African green monkey kidney epithelial cell line (Vero) were cultured in Dulbecco’s modified Eagle’s medium (DMEM) supplemented with 10% fetal bovine serum, 100 IU/mL penicillin and […] streptomycin. Cells were incubated at 37 °C with 95% air and 5% CO2 until they reached approximately 80% confluence before use.
# (§2) Cell viability assay was assessed by neutral red (NR). Briefly, cells at a density of 3 × 10^4 cells/well were seeded in 96-wells plate and incubated for 24 h. The sample at concentration, ranging from 10 to 500 µM, were added and incubated for 24 h. After incubation time, cells were washed with PBS. NR reagent (50 µg/mL) was added to each well and incubated for another 2 h. After that, cells were washed with PBS and lyzed with 0.33% HCl in isopropanol. Cisplatin was used as a positive control. The absorbance of NR was detected using microplate reader (Tecan, Lyon, France) at 520 nm. The percentage of cell viability was calculated vis-à-vis the untreated cells and cytotoxicity was expressed as the inhibition concentration at 50% (IC50). The final DMSO concentration was not exceed 0.1%v/v to lessen the cytotoxicity (<10%).
# [4] = test system: human colon carcinoma cell line (HCT116); assay: Cell viability assay (neutral red), HCT116; format: cell-based
# Protocol: as §1
# as §2, with “The sample at concentration, ranging from 10 to 500 µM, were added and incubated for 24 h.” left out
# [5] = test system: human lung adenocarcinoma cell line (SK-LU-1); assay: Cell viability assay (neutral red), SK-LU-1; format: cell-based
# Protocol: as §1
# as §2, with “The sample at concentration, ranging from 10 to 500 µM, were added and incubated for 24 h.” left out
# [6] = test system: noncancerous African green monkey kidney epithelial cell line (Vero); assay: Cell viability assay (neutral red), Vero; format: cell-based; set-up: key to IC50 Vero: inactive: Inactive means cell viability percentage was >50% at the maximum concentration used (>100 µM for the compound or >100 µg/mL for the extract); details: 24 h, inactive = viability >50% at >100 µM
# Protocol: as §1, §2
# [7] = test system: HepG2 cells; assay: Mode of cell death by Annexin V-FITC/PI staining, flow cytometry; format: cell-based, human
# Description: In this study, double staining of cells by Annexin V-FITC/propidium iodide (PI) was used to differentiate apoptosis from necrosis. The stages of apoptosis can be distinguished from necrotic cell death by flow cytometry using Annexin V-FITC/PI double staining of HepG2 cells. During the early stages of apoptosis, the phosphatidylserine comprising the cell membrane will externalize to be exposed to the surface of apoptotic cells and bind with Annexin V-FITC, showing a cell dot plot in Quadrant 4. The cell dot plot is positively stained with Annexin V-FITC but negatively stained with PI (+/−). When cells are damaged or undergo a late state of apoptosis, cells will lose their membrane integrity, including nuclear membrane integrity, so that PI can pass through the nuclear membrane, showing a cell dot plot in Quadrant 2. […] During cell undergo necrotic cell death, cells are stained and appear in Quadrant 1 (−/+). Normal cells are not stained and appear in Quadrant 3 (−/−). The total apoptotic cell death percentage was counted from the percentage of cells undergoing an early state and late state of apoptosis gathering from Quadrants 4 and 2, while the necrotic cell death percentage was counted from Quadrant 1, as shown in Figure 2.
# The Annexin V-FITC and PI apoptosis assay kit (BioLegend, San Diego, CA, USA) was used to determine mode of cell death as per previous report. The HepG2 cells (8 × 10^5 cell/mL) were seeded in a 24-well plate and incubated for 24 h. The compounds at a concentration of 1 x IC50 and 2 x IC50 were added and incubated for 12 and 24 h. After that, cells were washed with PBS and cold BioLegend’s cell staining buffer followed by staining with Annexin V-FITC and PI and cell were incubated in the dark for 15 min. The cells were analyzed by flow cytometry (BD FACSCanto II, BD Biosciences, San Jose, CA, USA) and the percentage of cells in different populations were calculated with FACSDiva software.
# [8] = 30 min in the dark, absorbance 517 nm
# [9] = cancer cells over noncancerous Vero cells
compound,measurement,setting,value
"COc1c2c(cc3oc(=O)ccc13)OC(C)(C)C=C2 [Xanthoxyletin (4), xanthoxyletin]",DPPH Assay IC50,[1]; [8],63.8 ± 0.8^d µg/mL
same,IC50,[1]; [8],247 ± 3 µM
same,DPPH radical scavenging activity classification,[1]; classified from IC50 in µg/mL,low radical scavenger
same,FRAP Value,[2],5.2 ± 0.3^f µM FeSO4 Equivalents
same,FRAP Value,[2]; listed as xanthoxyletin,5.2 µM FeSO4 Equivalents
same,IC50,"[3]; Homo sapiens, HepG2, 24 h, neutral red",78.2 ± 2.2 µM
same,Selectivity Index HepG2,[3]; [9],(1.3)
same,IC50,"[4]; Homo sapiens, HCT-116, 24 h, neutral red, inactive = viability >50% at >100 µM",79.8 ± 2.8 µM
same,Selectivity Index HCT116,[4]; [9],(1.3)
same,IC50,"[5]; Homo sapiens, SK-LU-1, 24 h, neutral red, inactive = viability >50% at >100 µM",94.4 ± 2.2 µM
same,Selectivity Index SK-LU-1,[5]; [9],(1.1)
same,IC50 Vero,[6],inactive^cB
same,"necrotic cell death percentage (Q1, Annexin V-FITC/PI −/+)","[7]; HepG2, 1 × IC50, 12 h",2.5 ± 0.7%
same,"apoptotic cell death percentage (total, Quadrants 4 and 2)","[7]; HepG2, 1 × IC50, 24 h",49.7 ± 1.1%
same,"necrotic cell death percentage (Q1, Annexin V-FITC/PI −/+)","[7]; HepG2, 1 × IC50, 24 h",1.6 ± 0.9%
same,"apoptotic cell death percentage (total, Quadrants 4 and 2)","[7]; HepG2, 2 × IC50, 12 h",49.6 ± 1.2%
same,"necrotic cell death percentage (Q1, Annexin V-FITC/PI −/+)","[7]; HepG2, 2 × IC50, 12 h",2.9 ± 1.2%
same,"apoptotic cell death percentage (total, Quadrants 4 and 2)","[7]; HepG2, 2 × IC50, 24 h",64.2 ± 3.2%
same,"necrotic cell death percentage (Q1, Annexin V-FITC/PI −/+)","[7]; HepG2, 2 × IC50, 24 h",2.7 ± 1.1%
